We go through eleven molecules from PubChem BioAssay (NCI).

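Exposure lasted 48 hours, with cells grown in 96-well plates and compounds tested at five concentrations. Abbreviation: GI50, concentration required for 50% inhibition of growth. At the TGI there is no net growth.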 Where only a bound is given, the exact number is not on record here.

What all share (assay): NCI-60 cell line screen, 48 h
Assay [1] relates to 786-0 renal.
The subject of assay [2] is MALME-3M melanoma.
Assay [3] has as its system U251 CNS.
For assay [4], the system named is EKVX NSCLC.
The subject of assay [5] is OVCAR-8 ovarian.
Assay [6] deals with HCC-2998 colon.
For assay [7], the system named is HCT-116 colon.
Assay [8] concerns MOLT-4 leukemia.
The test system of assay [9] is K-562 leukemia.

On to `CC1=NN(C(=O)Cc2ccccc2)C(=O)/C1=C\c1ccccc1O`, for which the TGI in assay [1], in assay [2], in [3], in assay [4], in assay [5] and in [6] was over 100 µM throughout. Further, the TGI in assay [7], in [8] and in assay [9] was over 100 µM throughout.

As to `COc1cc(-c2nc3cc(Cl)c(Cl)cc3[nH]2)ccc1OCC(=O)N=Nc1c(O)[nH]c2ccc(Cl)cc12`, the GI50 in assay [3] was 0.203 µM; in [4], 1.7 µM; in assay [7], 0.284 µM; in assay [8], 0.321 µM; in [9], 0.284 µM. For the same molecule, the TGI in assay [3] was 0.565 µM; in [4], over 100 µM; in assay [7], 1.2 µM; in assay [8], 1.59 µM.

As to `O=C(Nc1ccc(Sc2ccc(N=Nc3c(O)c(S(=O)(=O)O)cc4cc(S(=O)(=O)O)ccc34)cc2)cc1)c1ccc(N=Nc2c(O)c(S(=O)(=O)O)cc3cc(S(=O)(=O)O)ccc23)cc1`, the TGI is over 100 µM in assay [1]; 53.5 µM in assay [2]; over 100 µM in [3]; over 100 µM in assay [4]; over 100 µM in assay [5]; over 100 µM in assay [6]. Besides, the TGI in assay [7] was over 100 µM; in assay [8] it was 36.8 µM; in assay [9] it was over 100 µM.

Turning to `O=C(c1ccccc1O)c1cc(-c2ncc3c(=O)c4ccccc4oc3n2)c(-c2ccccc2O)[nH]c1=O`, the TGI in assay [2] is 74.4 µM; in [3] it was 27.7 µM; in assay [4], over 92 µM; in [5], over 90.2 µM; in [6], 38.2 µM; in assay [7], 47.4 µM. For the same molecule, the TGI in assay [8] amounted to 61.9 µM; in assay [9], 75.1 µM.

`Cc1ccc(C#CS(=O)(=O)C(F)(F)F)cc1`: the TGI in assay [2], in assay [3], in assay [4], in assay [5], in assay [6] and in assay [7] was over 100 µM throughout. In addition, the TGI in assay [8] and in [9] was over 100 µM each time.

On to `COc1ccc([C@H]2c3cc4c(cc3OC(O)(CO)[C@H]2C(=O)O)OCO4)c(OC)c1` (some centres not stated) (tested in a mixture with another compound), for which the TGI in [2], in [3], in assay [4], in [5], in assay [6] and in assay [7] was over 100 µM in each case. Also, the TGI in assay [8] and in assay [9] was over 100 µM in each case.

`O=NN1C(c2ccccc2)CCCC1c1ccccc1` (configuration not stated): the TGI in assay [2] is over 100 µM; in assay [3], over 100 µM; in assay [4] it was 99.1 µM; in assay [5] it was over 100 µM; in assay [6] it was over 100 µM; in assay [7], over 100 µM. For the same molecule, the TGI in assay [8] and in assay [9] was over 100 µM throughout.

With `Cn1cnc(SC2=C3C(=O)C=C4S[C@H]5C[C@]42c2c(c(O)c4c6c2=[N+]3CCC=6C=N4)N5)c1CC(N)C(=O)O` (some centres not stated), the TGI in assay [1] was found to be 59.7 µM; in [2] it was 12.4 µM; in assay [3] it was 31.3 µM; in [4] it was 32.9 µM; in [5], 27.2 µM; in assay [6], 29.8 µM. Besides, the figures for the TGI in assay [7], in [8] and in [9] were 13.3 µM, 33.7 µM and 41.3 µM, respectively.

In the case of `NC1=Nc2ccccc2Sc2nc3ccccc3n21`, the TGI in [1] is 5.23 µM; in assay [2], over 100 µM; in assay [3], over 100 µM; in assay [7], 32.8 µM; in [8] it was over 100 µM; in assay [9], over 100 µM.

In the case of `COc1ccc(C2=C(Cl)c3cc(OC)c(OC)cc3C2)cc1OC`, the TGI in [1], in assay [2], in [3], in assay [4], in assay [5] and in assay [6] was over 100 µM in each case. Further, the TGI in [7], in assay [8] and in assay [9] was over 100 µM throughout.

For the molecule `COc1ccc(CCCN2c3ccccc3Sc3ccccc32)cc1`, the TGI in [1], in assay [2], in assay [3], in assay [4], in assay [5] and in [6] was over 100 µM throughout. Also, the TGI in assay [7], in assay [8] and in assay [9] was over 100 µM throughout.
